Our source for the inhibition and melting point values is publication PMC9499365, “Stereoselective Synthesis and Application of Gibberellic Acid-Derived Aminodiols” (International Journal of Molecular Sciences, 2022).

Series [1] deals with SiHa cells (cervical cancer). Nature of the series: MTT antiproliferative assay, SiHa. The conditions noted are these: Homo sapiens, 72 h, read-out: Growth inhibition (%) ± SEM. The series is classed as cell-based, human. How it is done: (§1) The in vitro antiproliferative activities of the synthesized aminodiols 4–38 against a panel of different human cancer cell lines of gynecological origin, including cervical (SiHA and HeLa), breast (MCF7 and MDA-MB-231), and ovary (A2780) cancers were assayed by the MTT method. […] Cisplatin, a clinically applied anticancer agent, was used as a reference compound and the results are summarized in Figure 3 and Table S1 in Supporting Information. […] On the other hand, none of the prepared azole derivatives exerted relevant activity.
(§2) The growth-inhibitory effects of the gibberellic acid-based aminodiol derivatives were determined by a standard MTT (3-(4,5-dimethylthiazol-2-yl)-2,5-diphenyltetrazolium bromide) assay on a panel containing five cell lines, including Hela and Siha (cervical cancers); MDA-MB-231 and MCF-7 (breast cancers); and A2780 ovarian cancer cells. The most promising agents were additionally tested against NIH/3T3 mouse embryo fibroblast cells. All cell lines were purchased from the European Collection of Cell Cultures (Salisbury, UK) except SiHa, which was obtained from the American Tissue Culture Collection (Manassas, VA, USA). The cells were maintained in minimal essential medium supplemented with 10% fetal bovine serum, 1% non-essential amino acids, and 1% penicillin-streptomycin at 37 °C in a humidified atmosphere containing 5% CO2. All media and supplements were obtained from Lonza Group Ltd., (Basel, Switzerland). Cancer cells were seeded into 96-well plates (5000 cells/well), after an overnight incubation the test compound was added in 2 different concentrations (10 µM and 30 µM) and incubated for another 72 h under cell-culturing conditions. Then, 20 μL of 5 mg/mL MTT solution was added to each well and incubated for a further 4 h. The medium was removed, and the precipitated formazan crystals were dissolved in DMSO during 60 min of shaking at 37 °C. As the final step, the absorbance was measured at 545 nm by using a microplate reader (SPECTROStar Nano, BMG Labtech, Offenburg, Germany). Untreated cells were included as controls. […] These agents were additionally tested against NIH/3T3 fibroblasts to obtain results about their cancer selectivity. Two independent experiments were performed with five wells for each condition. Cisplatin (Ebewe GmbH, Unterach, Austria), a clinically used anticancer agent, was used as a positive control. Calculations were performed utilizing the GraphPad Prism 5.01 software (GraphPad Software Inc., San Diego, CA, USA).
A general note: Tetrazolium assays rely on reduction of a dye to a coloured formazan, in cell work by metabolically active cells.

Series [2] has as its system MDA-MB-231 cells (breast cancer). Nature of the series: MTT antiproliferative assay, MDA-MB-231. It counts as cell-based, human. Particulars: Homo sapiens, 72 h, read-out: Growth inhibition (%) ± SEM; for inhibition at 10 µM: MDA-MB-231, 10 μM; for inhibition at 30 µM: MDA-MB-231, 30 μM. The method, then:
as §1, §2

Series [3] has as its system A2780 ovarian cancer cells. Briefly: MTT antiproliferative assay, A2780. It counts as cell-based, human. Particulars: Homo sapiens, 72 h, read-out: Growth inhibition (%) ± SEM; for inhibition at 10 µM: A2780, 10 μM; for inhibition at 30 µM: A2780, 30 μM. The method, then: as §1, §2
For series [4], the system named is HeLa cells (cervical cancer). Briefly: MTT antiproliferative assay, HeLa. It counts as cell-based, human. The conditions noted are these: Homo sapiens, 72 h, read-out: Growth inhibition (%) ± SEM. How it is done:
as §1, §2

For `CCOC(=O)[C@H]1c2c(C)cccc2[C@H]2CC[C@]3(O)C[C@@]21C[C@]3(O)CNCc1ccc(F)cc1` [Compound 9, Ethyl (4bS,7S,8S,9aR,10R)-8-(((4-fluorobenzyl)amino)methyl)-7,8-dihydroxy-1-methyl-4b,6,7,8,9,10-hexahydro-5H-7,9a-methanobenzo[a]azulene-10-carboxylate], the melting point (in general, the temperature of the solid-liquid transition) fell in the range of 253 to 254 °C. Besides, in series [1], the inhibition (as a rule, how much of the control response was suppressed) at 10 µM stood at 26.6 ± 1.02% and the inhibition at 30 µM came to 53.6 ± 1.92%. In addition, in series [2], the inhibition at 10 µM was less than 20% and the inhibition at 30 µM was less than 20%. In addition, in series [3], the inhibition at 10 µM is less than 20% and the inhibition at 30 µM was 45.8 ± 1.62%. In series [4], the inhibition at 10 µM was less than 20% and the inhibition at 30 µM was determined as 30.6 ± 4.19%.

Consider `CCOC(=O)[C@H]1c2c(C)cccc2[C@H]2CC[C@]3(O)C[C@@]21C[C@]3(O)CN[C@@H](C)c1ccc(F)cc1` [Compound 10, Ethyl (4bS,7S,8S,9aR,10R)-8-((((S)-1-(4-fluorophenyl)ethyl)amino)methyl)-7,8-dihydroxy-1-methyl-4b,6,7,8,9,10-hexahydro-5H-7,9a-methanobenzo[a]azulene-10-carboxylate], for which the melting point was 84 to 86 °C. Also, in series [1], the inhibition at 10 µM amounted to 39.1 ± 1.82% and the inhibition at 30 µM turned out to be 97.08 ± 0.08%. Besides, in series [2], the inhibition at 10 µM was found to be 31.2 ± 0.77% and the inhibition at 30 µM amounted to 94.5 ± 1.05%. For the same compound, in series [3], the inhibition at 10 µM was determined as 22.2 ± 1.93% and the inhibition at 30 µM came out at 96.46 ± 0.76%. Moreover, in series [4], the inhibition at 10 µM was 38.5 ± 2.02% and the inhibition at 30 µM stood at 97.93 ± 0.11%.

Turning to `CCOC(=O)[C@H]1c2c(C)cccc2[C@H]2CC[C@]3(O)C[C@@]21C[C@]3(O)CNCc1ccc(OC)cc1` [Compound 11, Ethyl (4bS,7S,8S,9aR,10R)-7,8-dihydroxy-8-(((4-methoxybenzyl)amino)methyl)-1-methyl-4b,6,7,8,9,10-hexahydro-5H-7,9a-methanobenzo[a]azulene-10-carboxylate], the melting point lay in the range of 224 to 225 °C. In series [1], the inhibition at 10 µM came out at 30.7 ± 0.82% and the inhibition at 30 µM came out at 53.7 ± 0.76%. Further, in series [2], the inhibition at 10 µM was less than 20% and the inhibition at 30 µM stood at 78.7 ± 1.47%. Besides, in series [3], the inhibition at 10 µM is 31.7 ± 2.82% and the inhibition at 30 µM turned out to be 53.4 ± 1.68%. In addition, in series [4], the inhibition at 10 µM is less than 20% and the inhibition at 30 µM is 60.8 ± 2.44%.

Turning to `CCOC(=O)[C@H]1c2c(C)cccc2[C@H]2CC[C@]3(O)C[C@@]21C[C@]3(O)CNCc1cccc2ccccc12` [Compound 15, Ethyl (4bS,7S,8S,9aR,10R)-7,8-dihydroxy-1-methyl-8-(((naphthalen-1-ylmethyl)amino)methyl)-4b,6,7,8,9,10-hexahydro-5H-7,9a-methanobenzo[a]azulene-10-carboxylate], the melting point was 71 to 74 °C. In series [1], the inhibition at 10 µM amounted to 28.61 ± 0.15% and the inhibition at 30 µM stood at 97.95 ± 0.63%. In addition, in series [2], the inhibition at 10 µM is less than 20% and the inhibition at 30 µM is 95.96 ± 0.69%. Further, in series [3], the inhibition at 10 µM came to 21.9 ± 1.5% and the inhibition at 30 µM was 95.48 ± 0.65%. In addition, in series [4], the inhibition at 10 µM stood at 28.2 ± 0.88% and the inhibition at 30 µM was found to be 96.7 ± 1.54%.

In turn, `CCOC(=O)[C@H]1c2c(C)cccc2[C@H]2CC[C@]3(O)C[C@@]21C[C@]3(O)CN(Cc1ccccc1)Cc1ccccc1` [Compound 17, Ethyl (4bS,7S,8S,9aR,10R)-8-((dibenzylamino)methyl)-7,8-dihydroxy-1-methyl-4b,6,7,8,9,10-hexahydro-5H-7,9a-methanobenzo[a]azulene-10-carboxylate] gave a melting point of 101.4 to 103 °C. Moreover, in series [1], the inhibition at 10 µM is less than 20% and the inhibition at 30 µM is 47.1 ± 1.74%. Moreover, in series [2], the inhibition at 10 µM was less than 20% and the inhibition at 30 µM turned out to be 36.9 ± 1.58%. In series [3], the inhibition at 10 µM is less than 20% and the inhibition at 30 µM worked out at 78.9 ± 1.12%. Besides, in series [4], the inhibition at 10 µM came out at 40.8 ± 1.19% and the inhibition at 30 µM came to 45.6 ± 1.48%.

`CCOC(=O)[C@H]1c2c(C)cccc2[C@H]2CC[C@]3(O)C[C@@]21CC31CN(Cc2ccccc2)CO1` (stereo partly drawn) [Compound 24, Ethyl (4b’S,7’S,9a’R,10’R)-3-benzyl-7’-hydroxy-1’-methyl-4b’,6’,7’,10’-tetrahydro-5’H,9’H-spiro[oxazolidine-5,8’-[7,9a]methanobenzo[a]azulene]-10’-carboxylate] showed a melting point of 125 to 126 °C. Moreover, in series [1], the inhibition at 10 µM was less than 20% and the inhibition at 30 µM is 31.9 ± 1.28%. For the same compound, in series [2], the inhibition at 10 µM was less than 20% and the inhibition at 30 µM was determined as 42.4 ± 1.46%. In series [3], the inhibition at 10 µM is less than 20% and the inhibition at 30 µM came out at 34.1 ± 1.77%. In series [4], the inhibition at 10 µM was less than 20% and the inhibition at 30 µM stood at 53.9 ± 2.21%.

The compound `CCOC(=O)[C@H]1c2c(C)cccc2[C@H]2CC[C@]3(O)C[C@@]21C[C@]3(O)Cn1ccnc1` [Compound 26, Ethyl (4bS,7S,8S,9aR,10R)-8-((1H-imidazol-1-yl)methyl)-7,8-dihydroxy-1-methyl-4b,6,7,8,9,10-hexahydro-5H-7,9a-methanobenzo[a]azulene-10-carboxylate] showed a melting point of 101 to 103 °C. Moreover, in series [1], the inhibition at 10 µM was less than 20% and the inhibition at 30 µM stood at 25.9 ± 2.53%. Also, in series [2], the inhibition at 10 µM is less than 20% and the inhibition at 30 µM is less than 20%. Moreover, in series [3], the inhibition at 10 µM was less than 20% and the inhibition at 30 µM was less than 20%. In series [4], the inhibition at 10 µM is less than 20% and the inhibition at 30 µM was less than 20%.

`CCOC(=O)[C@H]1c2c(C)cccc2[C@H]2CC[C@]3(O)C[C@@]21C[C@]3(O)Cn1cnc2ccccc21` [Compound 27, Ethyl (4bS,7S,8S,9aR,10R)-8-((1H-benzo[d]imidazol-1-yl)methyl)-7,8-dihydroxy-1-methyl-4b,6,7,8,9,10-hexahydro-5H-7,9a-methanobenzo[a]azulene-10-carboxylate] had a melting point of 221 to 222 °C. Moreover, in series [1], the inhibition at 10 µM was found to be 26.2 ± 0.46% and the inhibition at 30 µM was determined as 44.4 ± 1.84%. In addition, in series [2], the inhibition at 10 µM is less than 20% and the inhibition at 30 µM is less than 20%. In series [3], the inhibition at 10 µM was less than 20% and the inhibition at 30 µM turned out to be 28.9 ± 1.27%. In series [4], the inhibition at 10 µM is less than 20% and the inhibition at 30 µM was 45.5 ± 1.87%.

Turning to `CCOC(=O)[C@H]1c2c(C)cccc2[C@H]2CC[C@]3(O)C[C@@]21C[C@]3(O)CNCc1cn(Cc2ccccc2)nn1` [Compound 31, Ethyl (4bS,7S,8S,9aR,10R)-8-((((1-benzyl-1H-1,2,3-triazol-4-yl)methyl)amino)methyl)-7,8-dihydroxy-1-methyl-4b,6,7,8,9,10-hexahydro-5H-7,9a-methanobenzo[a]azulene-10-carboxylate], the melting point was in the range of 122 to 123 °C. Also, in series [1], the inhibition at 10 µM is less than 20% and the inhibition at 30 µM stood at 42.9 ± 0.84%. For the same compound, in series [2], the inhibition at 10 µM is less than 20% and the inhibition at 30 µM was found to be 50.8 ± 3.01%. In addition, in series [3], the inhibition at 10 µM is less than 20% and the inhibition at 30 µM was 41.4 ± 1.13%. Besides, in series [4], the inhibition at 10 µM is less than 20% and the inhibition at 30 µM came to 40.2 ± 5.59%.

`CCOC(=O)[C@@H]1c2c(C)cccc2C2CC[C@]3(O)C[C@@]21C[C@]3(O)CN[C@@H](C)c1ccc2ccccc2c1` (stereo partly drawn) [Compound 35, Ethyl (7S,8S,9aR,10S)-7,8-dihydroxy-1-methyl-8-((((S)-1-(naphthalen-2-yl)ethyl)amino)methyl)-4b,6,7,8,9,10-hexahydro-5H-7,9a-methanobenzo[a]azulene-10-carboxylate] yielded a melting point of 56 to 59 °C. In series [1], the inhibition at 10 µM came to 44.6 ± 0.74% and the inhibition at 30 µM stood at 98.41 ± 0.74%. Also, in series [2], the inhibition at 10 µM was found to be 29.4 ± 1.66% and the inhibition at 30 µM amounted to 96.81 ± 0.82%. For the same compound, in series [3], the inhibition at 10 µM amounted to 42.7 ± 2.63% and the inhibition at 30 µM stood at 95.4 ± 0.48%. Moreover, in series [4], the inhibition at 10 µM is 40.1 ± 1.21% and the inhibition at 30 µM was found to be 95.9 ± 2.21%.
